Experimental data reported in patent US20190031618A1, “BENZIMIDAZOLE DERIVATIVES USEFUL AS CB-1 INVERSE AGONISTS” (Janssen Pharmaceutica NV, priority 2015, published 2019).

Key:
Format in all cases: in vivo
DIO mice [1] = assay: Chronic DIO Mouse: food intake, body weight, plasma insulin; conditions: chronic DIO mouse, (Std Err)
Description: Male 14-20-week old diet-induced obese mice are ordered from Taconic. Mice were started on a 60% fat diet (D12492, Research Diets, New Brunswick, N.J.) at 6 weeks of age. Mice are single-housed.
(§1) DIO mice received vehicle, test compound (@ 1, 3, 10, and 30 mg/kg) daily for 26 days. At the end of the experiment, the mice were euthanized and blood and tissues were collected.
Body weight and food weight (food intake) were monitored daily for days 1-5 and twice weekly thereafter.
(§2) Blood glucose was measured from the tail vein with a Lifescan glucometer. Plasma insulin was measured with an ELISA or HTRF kit (Cisbio). Plasma parameters were measured with an Olympus clinical chemistry analyzer.

DIO mice [2] = assay: Chronic DIO Mouse: oral glucose tolerance test; conditions: for Oral Glucose Tolerance Test Blood Glucose AUC: day 23
Description: as §1
(§3) An insulin tolerance test (0.7 U/kg Humulin, ip) was performed on day 21 after a 4 hour food removal. Blood glucose was measured at 0, 15, 30, 60 and 120 minutes after insulin. After an overnight fast, an oral glucose tolerance test (2 g/kg glucose) was performed on day 23. Blood glucose was measured at 0, 30, 60 and 120 minutes after glucose challenge.
as §2

DIO mice [3] = assay: Chronic DIO Mouse: insulin tolerance test; conditions: for Insulin Tolerance Test Blood Glucose AUC (Std Err): day 21
Description: as §1, §3, §2

`O=C(O)c1cccc(CN2CCC(n3c(C4CC4)nc4ccc(C(c5ccc(Cl)cc5)c5ccc(Cl)cc5)cc43)CC2)c1` [Example 148] was tested, and the “Mean Daily Food Intake” value (DIO mice [1]; 3 mg/kg daily, Day 18) was 2.2 (0.1) Grams, the “Mean Daily Food Intake” value (DIO mice [1]; 3 mg/kg daily, Day 24) was 2.2 (0.1) Grams and the “Mean Daily Food Intake” value (DIO mice [1]; 10 mg/kg daily, Day 2) was 0.5 (0.1) Grams. The “Mean Daily Food Intake” value (DIO mice [1]; 10 mg/kg daily, Day 3) was 0.9 (0.1) Grams, the “Mean Daily Food Intake” value (DIO mice [1]; 10 mg/kg daily, Day 4) was 1.7 (0.2) Grams and the “Mean Daily Food Intake” value (DIO mice [1]; 10 mg/kg daily, Day 5) was 1.8 (0.2) Grams. For the same compound, the “Mean Daily Food Intake” value (DIO mice [1]; 10 mg/kg daily, Day 8) was 1.7 (0.1) Grams, the “Mean Daily Food Intake” value (DIO mice [1]; 10 mg/kg daily, Day 11) was 2.0 (0.1) Grams and the “Mean Daily Food Intake” value (DIO mice [1]; 10 mg/kg daily, Day 15) was 2.3 (0.1) Grams. For the same compound, the “Mean Daily Food Intake” value (DIO mice [1]; 10 mg/kg daily, Day 18) was 2.3 (0.1) Grams, the “Mean Daily Food Intake” value (DIO mice [1]; 10 mg/kg daily, Day 24) was 2.2 (0.2) Grams and the “Mean Daily Food Intake” value (DIO mice [1]; 30 mg/kg daily, Day 2) was 0.1 (0.1) Grams. For the same compound, the “Mean Daily Food Intake” value (DIO mice [1]; 30 mg/kg daily, Day 3) was 0.5 (0.1) Grams, the “Mean Daily Food Intake” value (DIO mice [1]; 30 mg/kg daily, Day 4) was 0.7 (0.1) Grams and the “Mean Daily Food Intake” value (DIO mice [1]; 30 mg/kg daily, Day 5) was 1.0 (0.2) Grams. For the same compound, the “Mean Daily Food Intake” value (DIO mice [1]; 30 mg/kg daily, Day 8) was 1.3 (0.2) Grams, the “Mean Daily Food Intake” value (DIO mice [1]; 30 mg/kg daily, Day 11) was 1.7 (0.2) Grams and the “Mean Daily Food Intake” value (DIO mice [1]; 30 mg/kg daily, Day 15) was 2.3 (0.1) Grams. For the same compound, the “Mean Daily Food Intake” value (DIO mice [1]; 30 mg/kg daily, Day 18) was 1.8 (0.2) Grams, the “Mean Daily Food Intake” value (DIO mice [1]; 30 mg/kg daily, Day 24) was 2.4 (0.1) Grams and the “Oral Glucose Tolerance Test Blood Glucose AUC” value (DIO mice [2]; 1 mg/kg daily) was 19362 mg·min/dL. The “Oral Glucose Tolerance Test Mean Blood Glucose” value (DIO mice [2]; 1 mg/kg daily, day 23, 0 min after glucose) was 139.90 mg/dL, the “Oral Glucose Tolerance Test Mean Blood Glucose” value (DIO mice [2]; 1 mg/kg daily, day 23, 30 min after glucose) was 179.2 mg/dL and the “Oral Glucose Tolerance Test Mean Blood Glucose” value (DIO mice [2]; 1 mg/kg daily, day 23, 60 min after glucose) was 168.5 mg/dL. For the same compound, the “Oral Glucose Tolerance Test Mean Blood Glucose” value (DIO mice [2]; 1 mg/kg daily, day 23, 120 min after glucose) was 143.5 mg/dL, the “Oral Glucose Tolerance Test Blood Glucose AUC” value (DIO mice [2]; 3 mg/kg daily) was 19705 mg·min/dL and the “Oral Glucose Tolerance Test Mean Blood Glucose” value (DIO mice [2]; 3 mg/kg daily, day 23, 0 min after glucose) was 154.89 mg/dL. For the same compound, the “Oral Glucose Tolerance Test Mean Blood Glucose” value (DIO mice [2]; 3 mg/kg daily, day 23, 30 min after glucose) was 153.11 mg/dL, the “Oral Glucose Tolerance Test Mean Blood Glucose” value (DIO mice [2]; 3 mg/kg daily, day 23, 60 min after glucose) was 183.89 mg/dL and the “Oral Glucose Tolerance Test Mean Blood Glucose” value (DIO mice [2]; 3 mg/kg daily, day 23, 120 min after glucose) was 150.44 mg/dL. The “Oral Glucose Tolerance Test Blood Glucose AUC” value (DIO mice [2]; 10 mg/kg daily) was 19740 mg·min/dL, the “Oral Glucose Tolerance Test Mean Blood Glucose” value (DIO mice [2]; 10 mg/kg daily, day 23, 0 min after glucose) was 141.60 mg/dL and the “Oral Glucose Tolerance Test Mean Blood Glucose” value (DIO mice [2]; 10 mg/kg daily, day 23, 30 min after glucose) was 190.1 mg/dL. The “Oral Glucose Tolerance Test Mean Blood Glucose” value (DIO mice [2]; 10 mg/kg daily, day 23, 60 min after glucose) was 176.2 mg/dL, the “Oral Glucose Tolerance Test Mean Blood Glucose” value (DIO mice [2]; 10 mg/kg daily, day 23, 120 min after glucose) was 132.8 mg/dL and the “Oral Glucose Tolerance Test Blood Glucose AUC” value (DIO mice [2]; 30 mg/kg daily) was 19276.5 mg·min/dL. The “Oral Glucose Tolerance Test Mean Blood Glucose” value (DIO mice [2]; 30 mg/kg daily, day 23, 0 min after glucose) was 125.30 mg/dL, the “Oral Glucose Tolerance Test Mean Blood Glucose” value (DIO mice [2]; 30 mg/kg daily, day 23, 30 min after glucose) was 184.5 mg/dL and the “Oral Glucose Tolerance Test Mean Blood Glucose” value (DIO mice [2]; 30 mg/kg daily, day 23, 60 min after glucose) was 179 mg/dL. The “Oral Glucose Tolerance Test Mean Blood Glucose” value (DIO mice [2]; 30 mg/kg daily, day 23, 120 min after glucose) was 126.9 mg/dL, the “Insulin Tolerance Test Blood Glucose AUC (Std Err)” value (DIO mice [3]; 1 mg/kg daily) was 19606.5 mg·min/dL and the “Insulin Tolerance Test Mean Blood Glucose (Std Err)” value (DIO mice [3]; 1 mg/kg daily, day 21, 0 min after insulin) was 194.8 mg/dL. The “Insulin Tolerance Test Mean Blood Glucose (Std Err)” value (DIO mice [3]; 1 mg/kg daily, day 21, 15 min after insulin) was 193.3 mg/dL, the “Insulin Tolerance Test Mean Blood Glucose (Std Err)” value (DIO mice [3]; 1 mg/kg daily, day 21, 30 min after insulin) was 155 mg/dL and the “Insulin Tolerance Test Mean Blood Glucose (Std Err)” value (DIO mice [3]; 1 mg/kg daily, day 21, 60 min after insulin) was 161.3 mg/dL. For the same compound, the “Insulin Tolerance Test Mean Blood Glucose (Std Err)” value (DIO mice [3]; 1 mg/kg daily, day 21, 120 min after insulin) was 150 mg/dL, the “Insulin Tolerance Test Blood Glucose AUC (Std Err)” value (DIO mice [3]; 3 mg/kg daily) was 17812.5 (1054.85) mg/dL * min and the “Insulin Tolerance Test Mean Blood Glucose (Std Err)” value (DIO mice [3]; 3 mg/kg daily, day 21, 0 min after insulin) was 185.9 (6.57) mg/dL. The “Insulin Tolerance Test Mean Blood Glucose (Std Err)” value (DIO mice [3]; 3 mg/kg daily, day 21, 15 min after insulin) was 160.9 (7.24) mg/dL, the “Insulin Tolerance Test Mean Blood Glucose (Std Err)” value (DIO mice [3]; 3 mg/kg daily, day 21, 30 min after insulin) was 138.9 (9.10) mg/dL and the “Insulin Tolerance Test Mean Blood Glucose (Std Err)” value (DIO mice [3]; 3 mg/kg daily, day 21, 60 min after insulin) was 150.9 (11.66) mg/dL. The “Insulin Tolerance Test Mean Blood Glucose (Std Err)” value (DIO mice [3]; 3 mg/kg daily, day 21, 120 min after insulin) was 136.3 (9.51) mg/dL, the “Insulin Tolerance Test Blood Glucose AUC (Std Err)” value (DIO mice [3]; 10 mg/kg daily) was 17930.25 (556.44) mg/dL * min and the “Insulin Tolerance Test Mean Blood Glucose (Std Err)” value (DIO mice [3]; 10 mg/kg daily, day 21, 0 min after insulin) was 168.8 (7.13) mg/dL. For the same compound, the “Insulin Tolerance Test Mean Blood Glucose (Std Err)” value (DIO mice [3]; 10 mg/kg daily, day 21, 15 min after insulin) was 172.6 (9.66) mg/dL, the “Insulin Tolerance Test Mean Blood Glucose (Std Err)” value (DIO mice [3]; 10 mg/kg daily, day 21, 30 min after insulin) was 139.1 (7.03) mg/dL and the “Insulin Tolerance Test Mean Blood Glucose (Std Err)” value (DIO mice [3]; 10 mg/kg daily, day 21, 60 min after insulin) was 146.7 (5.80) mg/dL. The “Insulin Tolerance Test Mean Blood Glucose (Std Err)” value (DIO mice [3]; 10 mg/kg daily, day 21, 120 min after insulin) was 144.8 (5.86) mg/dL, the “Insulin Tolerance Test Blood Glucose AUC (Std Err)” value (DIO mice [3]; 30 mg/kg daily) was 14575.5 mg·min/dL and the “Insulin Tolerance Test Mean Blood Glucose (Std Err)” value (DIO mice [3]; 30 mg/kg daily, day 21, 0 min after insulin) was 143 mg/dL. The “Insulin Tolerance Test Mean Blood Glucose (Std Err)” value (DIO mice [3]; 30 mg/kg daily, day 21, 15 min after insulin) was 147.6 mg/dL, the “Insulin Tolerance Test Mean Blood Glucose (Std Err)” value (DIO mice [3]; 30 mg/kg daily, day 21, 30 min after insulin) was 119.8 mg/dL and the “Insulin Tolerance Test Mean Blood Glucose (Std Err)” value (DIO mice [3]; 30 mg/kg daily, day 21, 60 min after insulin) was 121.3 mg/dL. For the same compound, the “Insulin Tolerance Test Mean Blood Glucose (Std Err)” value (DIO mice [3]; 30 mg/kg daily, day 21, 120 min after insulin) was 104.5 mg/dL.
